Reference: patent US4015002A, “1-Aryl-2-oxo-2,4,5,6,7,7a-hexahydro-indoles, salts, pharmaceutical compositions and methods of use” (Laboratoire Roger Bellon, priority 1974, dated 1977)
Converted amounts (≈) assume the structure as drawn. “Also recorded” adds a separate entry of the source. Like-named read-outs stand apart in the source and are kept apart here.

What was measured:
platelet aggregation = experiment: Platelet aggregation in human blood; type: cell-based
cardiovascular system = experiment: Overall action on the cardiovascular system; type: in vivo
Source text: Compounds in accordance with the invention have shown a marked action on the cardiovascular system, particularly as coronary and cerebal peripheral vasodilators. Some of the compounds have also shown activity as hypotensives or hypertensives. […] In these tests, aqueous solutions of the salts described in the cited Examples were used.

dog = experiment: Cardiac isochaemal hypoxy in the dog (Sodi-Pallares preparation); type: in vivo; details: i.v. 10 or 25 mg/kg
Method: After ligature of the anterior intraventricular coronary artery (Sodi-Pallares preparation), intravenous administration of 10 or 25 mg/kg of the compound of Example 3, increased the strength of cardiac contractions and the ventricular dp/dt return, which reflects a […] in the contractile state of the myocardial fibres.

[1] = Toxicity, intravenous in the mouse; details: in vivo, i.v.
Method: The toxicities of the various compound were determined intravenously in the mouse.

anaethestized dog = experiment: Action on femoral delivery, aortal pressure and cardiac rhythm in the anaesthetized dog; type: in vivo
Method: This was investigated in an anaethestized dog, the compounds under test being administered by intraveneous perfusion (over 5 minutes). The various compounds under test were compared by administering all of them at a dose per kilogram corresponding to 1/10 of the mouse LD50 (I.V.).
Simultaneously were measured: variations of femoral delivery, aortal pressure, and cardiac rhythm. Table II indicates the maximum variations of these different parameters observed over the 30 minutes which followed administration of various compounds. These variations are expressed in percent based on the initial values.

[2] = tested on: isolated heart of the rabbit; experiment: Cardiac action on the isolated heart of a rabbit (Langendorf preparation); details: for EC20: Oryctolagus cuniculus
Method: (§1) This was examined according to known methods in the isolated auricle (Trevan preparation) and in the isolated heart of a rabbit (Langendorf preparation).
In the Langendorf preparation, the action of the compounds was determined from three parameters; the amplitude of contractions, coronary delivery, and rhythm. […] The results are indicated in Table 1; an arrow ↓ indicates a diminution, and an arrow ↑ an augmentation.

rat = experiment: Protection against cerebral isochaemial hypoxy in the rat (clamping of carotid and basilar artery, E.E.G.); type: in vivo; details: 5 mg/kg i.v.
Method: The protective effect of the compound of Example 3 with regard to cerebal isochaemal hypoxy is shown for at least 3 hours after injection.

isolated auricle = experiment: Cardiac action on the isolated auricle (Trevan preparation): amplitude of contractions; details: arrows for diminution/increase are drawings, 0 = inactive, read-out: Action on the isolated auricle: minimum concentration producing a variation of 20% in amplitude of contractions
Method: as §1
Cardiac action of the compounds in question was evaluated according to the amplitude of contractions of the isolated auricle.

[3] = Hygroscopicity of the hydrochloride; type: physicochemical; details: hydrochloride salt
[4] = i.v. perfusion over 5 min, dose 1/10 of mouse LD50, percent based on initial values
[5] = direction arrow is a drawing, read-out: Amplitude of contractions: concentration producing a variation of 20%

O=C1C=C2CCCCC2N1c1ccc(OCCN2CCOCC2)cc1 (stereo not shown) [Example 3, 1-[4-(2-morpholinoethoxy)-phenyl]-2-oxo-2,4,5,6,7,7a-hexahydro-indole]
Inhibition of platelet aggregation induced by A.D.P. (platelet aggregation; 1 × 10^-5 (unit not given), A.D.P. 5 mM/l): inhibited platelet aggregation | Inhibition of platelet aggregation induced by collagen (platelet aggregation; 1 × 10^-5 (unit not given), collagen 200 mg/cm^3): inhibited platelet aggregation | Inhibition of platelet aggregation induced by adrenalin (platelet aggregation; 2 × 10^-4 M, adrenalin 2.5 mcM/l): inhibited platelet aggregation | Action on the cardiovascular system (in words) (cardiovascular system; aqueous solutions of the salts): vasodilators, this action being shown on coronary delivery, femoral delivery and vertebral delivery | Cardiac frequency on increase in amplitude of cardiac contractions (in words) (cardiovascular system; in vivo): modified and transitory increase in cardiac frequency | Protection with regard to cardiac isochaemal hypoxy (dog): showed protective properties | Strength of cardiac contractions (dog; after coronary artery ligature): increased | Ventricular dp/dt return (dog; after coronary artery ligature): increased | LD50 [1]: 225 mg/kg | Aortal pressure (in words) (anaethestized dog; anaesthetized dog, i.v.): without modifying aortal pressure; also recorded: without changes in aortal pressure | Cardiac frequency (in words) (anaethestized dog; anaesthetized dog, i.v.): without modifying aortal pressure or cardiac frequency | Vasodilator action (in words) (anaethestized dog; anaesthetized dog, i.v., 1/10 of mouse LD50): clearly vasodilators | Aortal pressure (in words) (anaethestized dog; anaesthetized dog, i.v., listed as Example 4): without changes in aortal pressure | Aortal pressure, maximum variation in 30 minutes (anaethestized dog; [4]): 0% | Coronary delivery (in words) [2]: did not modify coronary rhythm or augment coronary delivery | Coronary rhythm (in words) [2]: did not modify coronary rhythm | EC20 ([2]; augmentation, read-out: Concentration providing an augmentation of 20% in the amplitude of contractions): 10 µg/mL (≈ 29.2 µM) | EC20 [2, 5]: 10 µg/mL (≈ 29.2 µM) | EC20 ([2]; direction arrow is a drawing, read-out: Coronary delivery: concentration producing a variation of 20%): 20 µg/mL (≈ 58.4 µM) | Protection with regard to cerebral isochaemial hypoxy (rat): marked protecting properties | Delay in the appearance of electrical silence in the E.E.G. (rat; after beginning of clamping): significantly increased | Duration of protective effect with regard to cerebral hypoxy (rat; after injection): at least 3 hours | Delay in normalization of the E.E.G. trace (rat; after removal of the clamps): significantly reduced | Period of electrical silence of the E.E.G. (rat; during clamping and after removal of clamps): significantly reduced

CN(C)CCOc1ccc(N2C(=O)C=C3CCCCC32)cc1Cl (stereo not shown) [Example 15, 1-[3-chloro-4-(2-dimethylaminoethoxy)-phenyl]-2-oxo-2,4,5,6,7,7a-hexahydro-indole]
EC20 (isolated auricle): 5 µg/mL (≈ 14.9 µM) | Hygroscopicity [3]: hygroscopic and absorbed 1/2 mol of water from the air | LD50 [1]: 15 mg/kg | Aortal pressure, maximum variation in 30 minutes (anaethestized dog; [4]): 0% | Cardiac Rhythm, maximum variation in 30 minutes (anaethestized dog; [4]): 0% | EC20 [2, 5]: 1 µg/mL (≈ 2.99 µM) | EC20 ([2]; direction arrow is a drawing, read-out: Rhythm: concentration producing a variation of 20%): 1 µg/mL (≈ 2.99 µM)
